Paper PMC10120551, “Novel Glu-based pyrazolo[3,4-d]pyrimidine analogues: design, synthesis and biological evaluation as DHFR and TS dual inhibitors” (Journal of Enzyme Inhibition and Medicinal Chemistry, 2023)

Legend:
[1] = test system: OVCAR-4; settings: OVCAR-4, Ovarian cancer; five-dose 0.01–100 µM
[2] = test system: SF-539; test: NCI one-dose screen (SRB); format: cell-based, human; settings: SF-539, CNS cancer; 10 µM single dose
Protocol: (§1) The growth percentage (G%) and cell viability of the herein target compounds 6a–l, 7a,b, and 9a–c have been screened towards a full panel of 59 cancer cells at NCI’s Developmental Therapeutics Program (NCI-DTP, MD, USA)[21]. The submitted analogues were initially examined for preliminary in vitro anticancer activity using sulforhodamine B (SRB) assay at 10 µM as a single dose to evaluate cell growth and viability according to the procedure of Drug Evaluation Branch[22]^,[23].
(§2) Different types of tumours – colon, NSCLC, leukaemia, CNS, renal, breast, ovarian, melanoma, and prostate cancers – were investigated as a full panel of 59 cell lines, and the attained results are cited in Figures S1–S17 (see Supplementary Material) where the value recorded is the growth relative to that of both the negative control and zero-time number of cells in which both growth inhibition (GI%; 0–100%) and lethality (L%; 0–100%) percentages can be identified. The growth inhibition means percentages (MGI%) for the examined target analogues towards the different treated 59 cancer cells were presented in Figure 2.
(§3) The designed analogues were submitted to NCI-Chemotherapeutic Agents Repository (MD, USA) for screening on a panel of 59 cancer cell lines. All compounds were initially examined at 10 µM concentration (Single-Dose Screen), and then the most efficient analogue 6i was screened further at 0.01–100 µM (Five-Dose Screen). The screening procedures were performed according to NCI-Drug Evaluation Branch protocol using SRB protein assay, as described previously[21]^,[66]. The experimental procedures were detailed in the Supporting Information.

[3] = test system: NCI-H226; test: NCI one-dose screen (SRB); format: cell-based, human; settings: NCI-H226, NSCLC; 10 µM single dose
Protocol: as §1, §2, §3

[4] = test system: OVCAR-8; test: NCI one-dose screen (SRB); format: cell-based, human; settings: OVCAR-8, Ovarian; 10 µM single dose
Protocol: as §1, §2, §3

[5] = test system: PC-3; test: NCI one-dose screen (SRB); format: cell-based, human; settings: PC-3, Prostate; 10 µM single dose
Protocol: as §1, §2, §3

[6] = test system: MCF7; test: NCI one-dose screen (SRB); format: cell-based, human; settings: MCF7, Breast; 10 µM single dose
Protocol: as §1, §2, §3

[7] = test system: OVCAR-3; test: NCI one-dose screen (SRB); format: cell-based, human; settings: OVCAR-3, Ovarian; 10 µM single dose
Protocol: as §1, §2, §3

[8] = test system: UACC-62; test: NCI one-dose screen (SRB); format: cell-based, human; settings: UACC-62, Melanoma; 10 µM single dose
Protocol: as §1, §2, §3

[9] = test system: EKVX; test: NCI one-dose screen (SRB); format: cell-based, human; settings: NSCLC, 10 µM single dose
Protocol: as §1, §2, §3

[10] = test system: HT29; test: NCI one-dose screen (SRB); format: cell-based, human; settings: HT29, Colon cancer; 10 µM single dose
Protocol: as §1, §2, §3

[11] = test system: COLO 205; test: NCI one-dose screen (SRB); format: cell-based, human; settings: COLO 205, Colon cancer; 10 µM single dose
Protocol: as §1, §2, §3

[12] = test system: MDA-MB-468; test: NCI one-dose screen (SRB); format: cell-based, human; settings: MDA-MB-468, Breast; 10 µM single dose
Protocol: as §1, §2, §3

[13] = test system: SF-268; test: NCI one-dose screen (SRB); format: cell-based, human; settings: SF-268, CNS; 10 µM single dose
Protocol: as §1, §2, §3

[14] = test system: SK-MEL-28; test: NCI one-dose screen (SRB); format: cell-based, human; settings: SK-MEL-28, Melanoma; 10 µM single dose
Protocol: as §1, §2, §3

[15] = test system: A549/ATCC; test: NCI one-dose screen (SRB); format: cell-based, human; settings: NSCLC, 10 µM single dose
Protocol: as §1, §2, §3

[16] = test system: SF-295; test: NCI one-dose screen (SRB); format: cell-based, human; settings: SF-295, CNS; 10 µM single dose
Protocol: as §1, §2, §3

[17] = test system: SN12C; test: NCI one-dose screen (SRB); format: cell-based, human; settings: Renal cancer, 10 µM single dose
Protocol: as §1, §2, §3

[18] = test system: M14; test: NCI one-dose screen (SRB); format: cell-based, human; settings: M14, Melanoma; 10 µM single dose
Protocol: as §1, §2, §3

[19] = test system: NCI/ADR-RES; test: NCI one-dose screen (SRB); format: cell-based, human; settings: Ovarian cancer, 10 µM single dose
Protocol: as §1, §2, §3

[20] = test system: DU-145; test: NCI one-dose screen (SRB); format: cell-based, human; settings: DU-145, Prostate; 10 µM single dose
Protocol: as §1, §2, §3

[21] = test system: SK-MEL-5; test: NCI one-dose screen (SRB); format: cell-based, human; settings: SK-MEL-5, Melanoma; 10 µM single dose
Protocol: as §1, §2, §3

[22] = test system: NCI-H23; test: NCI one-dose screen (SRB); format: cell-based, human; settings: NCI-H23, NSCLC; 10 µM single dose
Protocol: as §1, §2, §3

[23] = test system: 786-0; test: NCI one-dose screen (SRB); format: cell-based, human; settings: 786-0, Renal; 10 µM single dose
Protocol: as §1, §2, §3

[24] = test system: HOP-62; test: NCI one-dose screen (SRB); format: cell-based, human; settings: HOP-62, NSCLC; 10 µM single dose
Protocol: as §1, §2, §3

[25] = test system: U251; test: NCI one-dose screen (SRB); format: cell-based, human; settings: U251, CNS cancer; 10 µM single dose
Protocol: as §1, §2, §3

[26] = test system: OVCAR-4; test: NCI one-dose screen (SRB); format: cell-based, human; settings: OVCAR-4, Ovarian cancer; 10 µM single dose
Protocol: as §1, §2, §3

[27] = test system: CCRF-CEM; test: NCI one-dose screen (SRB); format: cell-based, human; settings: Leukaemia, 10 µM single dose
Protocol: as §1, §2, §3

[28] = test system: SNB-19; test: NCI one-dose screen (SRB); format: cell-based, human; settings: SNB-19, CNS cancer; 10 µM single dose
Protocol: as §1, §2, §3

[29] = test system: NCI-H522; test: NCI one-dose screen (SRB); format: cell-based, human; settings: NCI-H522, NSCLC; 10 µM single dose
Protocol: as §1, §2, §3

[30] = test system: LOX IMVI; test: NCI one-dose screen (SRB); format: cell-based, human; settings: Melanoma, 10 µM single dose
Protocol: as §1, §2, §3

[31] = test system: HS 578 T; test: NCI one-dose screen (SRB); format: cell-based, human; settings: Breast cancer, 10 µM single dose
Protocol: as §1, §2, §3

[32] = test system: SF-268; test: cells; settings: Homo sapiens
[33] = test system: SK-MEL-5; test: cells; settings: Homo sapiens

In the case of `CCOC(=O)CC[C@H](NC(=O)c1ccc(NC(=O)Cn2cnc3c(c(C)nn3-c3ccc(Br)cc3)c2=O)cc1)C(=O)OCC` [Compound 6i], the TGI [1] is reported as 32.1 µM, the GI% [2] is reported as 54.23% and the “L% (lethality)” value [3] is reported as 37.32%. It also gave a GI% [4] of 87.86%, a GI% [5] of 91.71% and a GI% [6] of 97.72%. It also gave a GI% [7] of 96.83%, a GI% [8] of 63.82% and a GI% [9] of 78.12%. The GI% [10] was 59.90%, the GI% [11] was 71.69% and the GI% [12] was 92.44%. The GI% [13] was 85.11%, the GI% [14] was 75.54% and the GI% [15] was 71.36%. For the same compound, the GI% [16] was 89.78%, the GI% [17] was 57.69% and the GI% [18] was 74.15%. For the same compound, the GI% [19] was 51.78%, the GI% [20] was 85.62% and the “L% (lethality)” value [21] was 1.38%. For the same compound, the GI% [22] was 87.19%, the GI% [23] was 82.93% and the “L% (lethality)” value [24] was 8.41%. For the same compound, the GI% [25] was 53.30%, the GI% [26] was 66.09% and the GI% [27] was 70.05%. For the same compound, the GI% [28] was 61.23%, the GI% [29] was 52.34% and the GI% [30] was 78.49%. It also gave a GI% [31] of 75.80%, a GI50 ([32]; SF-268) of 7.01 µM and a CC50 ([32]; SF-268, read-out: LC50) of over 100 µM. It also gave a GI50 ([33]; SK-MEL-5) of 19.4 µM and a CC50 ([33]; SK-MEL-5, read-out: LC50) of 95.8 µM.
